Key:
Assay type in all cases: cell-based
[1] = system: IgE secretion by U266 human myeloma cells; assay: IgE secretion by U266 human myeloma cells (IgE ELISA of supernatants); details: for Percent Control, IgE Secretion (IgE) (Table VIII): 100 μg/ml (no concentration printed for Formula)
Procedure: The methodology used to obtain the results of FIG. 3 will now be described. First, U266 human myeloma cells, available from ATCC of Manassas, Va. were plated in 96 well plates at 4×10^4/well. The cells were exposed to the sample combinations of ingredients listed in Table I, each combination referred to as a “sample.” Stock solutions of all samples were prepared in a solution of DMSO, ethanol, and water present in a ratio of 5:3:2 at 100 mg/ml. Each sample was then diluted to 100 μg/ml in media. Duplicate plates of each sample were prepared so that viability could be determined multiple times for each sample, with the results of the multiple samples averaged following treatment of the cells. The plates were incubated an additional 48 hours. Thereafter, the amount of IgE in the supernatants was measured using a conventional quantitative IgE ELISA kit available from Bethyl Laboratories of Montgomery, Tex. Next, the measured OD450 data from the IgE ELISA was inputted into a calibration graph, illustrated in FIG. 4, to determine the concentration of IgE in ng/ml in each supernatant. This calibration graph was generated by measuring the OD450 of multiple, known concentrations (in nanograms per ml) of purified IgE. As shown in the graph, the X-axis indicates the concentrations of the IgE in ng/ml; and the Y-axis indicates the OD450 derived from each of the concentrations. The line 100 connects the data points, while line 110 is a trend line corresponding to the equation in this particular embodiment of: Y=0.2909X−0.2527 Equation 1 With the IgE calibration graph, the amount of IgE for each sample was determined, and the subsequent data was input into FIG. 3 for comparative analysis.

[2] = system: PGD2 release, RBL-2H3 cells; assay: PGD2 release from IgE-sensitized, DNP-BSA stimulated RBL-2H3 cells (ELISA); details: 10 μg/ml
Procedure: (§1) The methodology used to obtain the results of FIG. 9 will now be described. First, RBL-2H3 cells, available from ATCC (American Type Culture Collection) of Manassas, Va., were plated in 24 well plates at 5×10^4/well. Following adherence, the cells were exposed to the ingredients or combination of ingredients noted in FIG. 9, also referred to as samples. The samples were used at the concentrations noted in Table VI. Stock solutions of all samples were prepared in a solution of DMSO, ethanol, and water present in a ratio of 5:3:2 at 100 mg/ml. Each sample was then diluted in media to the final concentration. The cells were then incubated overnight with the samples. The following day a mouse anti-dinitrophenyl (DNP) IgE antibody, available from Sigma of St. Louis, Mo., was added to the cells at a final concentration of 1 ng/ml. The cells were incubated for 1.5 hr at 37° C. to allow binding of the IgE molecule to the cellular IgE receptor via the constant region of the antibody. Following this incubation period, the cells were washed twice. A solution containing DNP conjugated to BSA (DNP-BSA), available from Calbiochem of San Diego, Calif., was added to the cells at 0.5 ng/ml. […] Next, the measured OD450 data from the ELISA was inputted into a calibration graph to determine the amount by which histamine was reduced relative to an untreated control sample. […]

[3] = system: LTC4 release, RBL-2H3 cells; assay: LTC4 release from IgE-sensitized, DNP-BSA stimulated RBL-2H3 cells (ELISA); details: 1 μg/ml
Procedure: as §1

[4] = system: histamine release, RBL-2H3 cells; assay: Histamine release from IgE-sensitized, DNP-BSA stimulated RBL-2H3 cells (ELISA); details: for Percent Control of Histamine Release (Table VII): 10 ng/ml, in combinations each part at 10 ng/ml; for Percent Control, Histamine Release (Table VIII): 1 μg/ml
Procedure: The methodology used to obtain the results of FIG. 9 will now be described. First, RBL-2H3 cells, available from ATCC (American Type Culture Collection) of Manassas, Va., were plated in 24 well plates at 5×10^4/well. Following adherence, the cells were exposed to the ingredients or combination of ingredients noted in FIG. 9, also referred to as samples. The samples were used at the concentrations noted in Table VI. Stock solutions of all samples were prepared in a solution of DMSO, ethanol, and water present in a ratio of 5:3:2 at 100 mg/ml. Each sample was then diluted in media to the final concentration. The cells were then incubated overnight with the samples. The following day a mouse anti-dinitrophenyl (DNP) IgE antibody, available from Sigma of St. Louis, Mo., was added to the cells at a final concentration of 1 ng/ml. The cells were incubated for 1.5 hr at 37° C. to allow binding of the IgE molecule to the cellular IgE receptor via the constant region of the antibody. Following this incubation period, the cells were washed twice. A solution containing DNP conjugated to BSA (DNP-BSA), available from Calbiochem of San Diego, Calif., was added to the cells at 0.5 ng/ml. The cells were incubated an additional 1 hr at 37° C. The supernatants were assayed for the presence of histamine, PGD2 and/or LTC4 using ELISA kits commercially available from Cayman Chemical of Ann Arbor, Mich. according to the manufacturer's specifications. Next, the measured OD450 data from the ELISA was inputted into a calibration graph to determine the amount by which histamine was reduced relative to an untreated control sample. An example of a histamine calibration graph is illustrated in FIG. 10. Suffice it to say that calibration graphs for PGD2 and LTC4 are similar. The calibration graph in FIG. 10 was generated by measuring the OD450 of multiple, known concentrations of purified histamine. As shown in the graph, the X-axis indicates the concentrations of the histamine in nanomolar; and the Y-axis indicates the OD450 derived from each of the concentrations. The line 120 connects the data points, while line 130 is a trend line corresponding to the equation in this particular embodiment of: Y=−0.0025X^2+0.2915X+2.0775 Equation 2 With the histamine calibration graph, the amount of histamine for each sample was determined, and the subsequent data was input into Table VI and FIG. 9 for comparative analysis.

[5] = listed as Luteolin from Perilla seed

## O=c1cc(-c2ccc(O)c(O)c2)oc2cc(O)cc(O)c12 [Luteolin]
[1]
  Percent Control, IgE Secretion (IgE) (Table VIII): about 95%
[1]; [5]
  Percent Control, IgE Secretion (IgE) (Table VIII): 95.5%
[1]; 100 μg/ml, relative to untreated control cells
  Percent Control IgE-Secretion (Table V): 53%
[2]
  Percent Control of PGD2 Release (Table VI): 68%
[3]
  Percent Control LTC4 Release (Table VI): 157%
[4]
  Percent Control of Histamine Release (Table VII): 88.1%
  Percent Control, Histamine Release (Table VIII): about 100%
[4]; listed as luteolin
  Percent Control of Histamine Release (Table VII): about 88%
[4]; listed as luteolin from Perilla leaf
  Percent Control of Histamine Release (Table VII): about 88%
[4]; 100 ng/ml
  Percent Control of Histamine Release (Table VI): 10%
[4]; [5]
  Percent Control, Histamine Release (Table VIII): 99.9%

From US7384656B2, “Anti-allergy composition and related method” (Access Business Group International LLC, priority 2004, dated 2008)
